Experimental data from patent publication US7217411B2, “CeSERT genes, proteins, and modulatory compounds” (Massachusetts Institute of Technology, priority 2000, dated 2007).
“And” between values parts separate entries of the source, which are not always exact repeats. Identical values can stand only once.

Tests used:
[1] = target: T1, MOD-5 CeSERT (Caenorhabditis elegans, UniProt Q963F3); assay: MOD-5-mediated [^3H]serotonin uptake in HEK293 cell lines stably expressing MOD-5; conditions: for MOD-5-mediated uptake of radiolabeled neurotransmitter: 50 μM radiolabeled neurotransmitter vs 1 μM [^3H]serotonin; for transport of [^3H]serotonin by MOD-5, % of control: inhibitor 100 μM, [^3H]serotonin 50 nM
T1 sequence (Q963F3 1-671): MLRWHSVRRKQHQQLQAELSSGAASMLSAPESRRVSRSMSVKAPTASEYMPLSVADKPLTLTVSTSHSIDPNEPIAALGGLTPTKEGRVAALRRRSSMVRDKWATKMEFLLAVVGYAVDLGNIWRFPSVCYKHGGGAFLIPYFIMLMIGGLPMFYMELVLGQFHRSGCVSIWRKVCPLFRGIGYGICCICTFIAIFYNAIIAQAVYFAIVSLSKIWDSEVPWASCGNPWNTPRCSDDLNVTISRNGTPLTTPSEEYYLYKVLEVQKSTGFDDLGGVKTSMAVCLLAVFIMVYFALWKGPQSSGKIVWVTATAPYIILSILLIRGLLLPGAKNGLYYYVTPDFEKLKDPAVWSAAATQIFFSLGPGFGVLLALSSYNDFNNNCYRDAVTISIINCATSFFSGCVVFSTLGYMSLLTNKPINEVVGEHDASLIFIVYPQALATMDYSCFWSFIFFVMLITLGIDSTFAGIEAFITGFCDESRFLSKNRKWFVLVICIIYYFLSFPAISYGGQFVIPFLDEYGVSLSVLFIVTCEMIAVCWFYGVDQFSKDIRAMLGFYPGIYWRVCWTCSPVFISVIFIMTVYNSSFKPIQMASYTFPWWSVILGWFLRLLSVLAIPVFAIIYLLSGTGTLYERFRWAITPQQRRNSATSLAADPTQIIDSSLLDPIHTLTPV

[2] = target: T1, MOD-5 CeSERT; assay: cell-based
[3] = target: T2, dSERT (Drosophila melanogaster, UniProt P51905); conditions: inhibitor 200 μM, [^3H]serotonin 100 nM; cited from earlier work
T2 sequence (P51905 1-622): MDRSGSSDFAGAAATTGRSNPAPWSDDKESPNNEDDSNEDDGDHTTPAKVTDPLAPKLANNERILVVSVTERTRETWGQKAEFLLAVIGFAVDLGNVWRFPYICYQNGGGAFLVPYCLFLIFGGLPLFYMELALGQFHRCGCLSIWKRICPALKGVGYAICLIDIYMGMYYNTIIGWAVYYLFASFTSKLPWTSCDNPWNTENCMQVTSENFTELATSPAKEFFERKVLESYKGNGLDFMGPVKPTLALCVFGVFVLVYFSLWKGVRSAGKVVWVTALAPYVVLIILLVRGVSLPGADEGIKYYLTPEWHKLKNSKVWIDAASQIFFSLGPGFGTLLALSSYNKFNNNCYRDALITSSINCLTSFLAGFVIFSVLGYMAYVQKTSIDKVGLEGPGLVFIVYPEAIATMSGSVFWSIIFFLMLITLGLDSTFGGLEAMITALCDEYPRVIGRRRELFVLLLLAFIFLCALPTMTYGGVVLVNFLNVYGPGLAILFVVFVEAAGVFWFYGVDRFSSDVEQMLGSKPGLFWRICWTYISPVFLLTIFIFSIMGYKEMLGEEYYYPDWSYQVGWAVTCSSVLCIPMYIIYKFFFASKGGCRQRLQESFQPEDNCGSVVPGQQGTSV

[4] = tested on: C. elegans; assay: fluoxetine-induced nose contraction; format: in vivo; conditions: 20 minutes
Description: This conclusion is consistent with the conclusion by Choy and Thomas (1999) that fluoxetine-mediated nose contraction is serotonin-independent, although their hypothesis was based on studies of cat-1(e1111) mutants, which are defective in signaling by several biogenic amines (Duerr et al., J Neurosci 19:72–84, 1999), and cat-4 mutants, which we found to not completely lack serotonin (FIG. 1B).

[5] = tested on: C. elegans; assay: fluoxetine-induced paralysis (liquid locomotion assay); format: in vivo
Description: (Five trials with 20 animals of each genotype at each concentration and the animals were scored for paralysis after ten minutes.) There was no difference in the time-course of paralysis at any of the concentrations tested. These observations indicate that fluoxetine-induced paralysis in C. elegans is not caused by the lack of serotonin uptake from synapses. Fluoxetine-treated wild-type and mod-5(n3314) mutant animals assumed a rigid body posture. […] Serotonin has been proposed to decrease excitatory input to the locomotory muscles (Nurrish et al., Neuron 24:231–242, 1999).
(§1) The plates were allowed to dry at room temperature with their lids removed for more than 2 hours.
Animals to be tested for sensitivity or insensitivity to serotonin in this liquid locomotion assay were picked as L4 animals 16–20 hours prior to assay and the plates were coded so that the experimenter was blind to the genotype of the animals to be scored. On the day of the assay, serotonin (as a creatinine sulphate salt) was dissolved just before use, in M9, at the required concentrations, and 200 μl were aliquoted to the wells of a flat-bottomed 96-well polystyrene plate. […] Fluoxetine-induced paralysis was scored in a similar manner at 10 min.

[6] = tested on: C. elegans; assay: egg-laying assay; format: in vivo
Procedure: Egg-laying assays were performed as described in Trent et al. (Genetics 104:619–647, 1983).

[7] = tested on: C. elegans; assay: enhanced slowing response (locomotory rate of food-deprived animals on bacteria); format: in vivo
Procedure: as §1
For the experiment shown in FIG. 2, well-fed and food-deprived animals were transferred to assay plates with or without a bacterial lawn, and the locomotory rate of each animal was recorded after 5 min; food-deprived animals were transferred to plates without bacteria 30 min prior to the transfer to locomotory assay plates as is also described in Sawin et al. (Neuron 26:619–623, 2000). At least 10 trials were performed for each genotype for each condition. For FIG. 2, each trial involved testing at least five animals for each of the conditions; a given animal was tested in only one condition. p values were calculated by comparing the combined data for the mutants from all of the separate trials under one set of conditions to the combined data for the wild-type animals assayed in parallel under the same conditions. In FIG. 2B the data were obtained from three well-fed animals of each ablation state, seven mock-ablated and food-deprived animals, and 12 NSM-ablated and food-deprived animals. In FIG. 2D, serotonin dose-response curves for wild-type and mod-5 mutant animals were generated from averages of five trials with 20 animals of each genotype at each concentration in which animals were scored for movement after 5 min.
Alternatively, nematodes to be tested in a non-liquid locomotion assay were picked as L4 animals 16–20 hours prior to the assay. Locomotion was assayed by placing the nematode on an assay plate (prepared by spreading a solution of E. coli strain HB101 in NGM agar in 5 cm plates, using a ring with an inner diameter of approximately 1 cm and an outer diameter of approximately 3.5 cm, and allowing the bacteria to grow 13–15 hours at 37 C.), observing each nematode under a dissecting microscope for 20 seconds, and counting the number of dorsal-ventral bends that occurred in the anterior portion of the body during the interval.
To assay locomotion rates in food-deprived animals, 5–15 animals were removed from plates with ample food, washed twice in S-basal buffer, and transferred to 5 cm NGM agar plates without bacteria. Food-deprived animals were incubated on these plates for 30 minutes at room temperature, and then were transferred to assay plates. Locomotion rates were assayed as described above for satiated animals.

[8] = tested on: C. elegans; conditions: in vivo; cited from earlier work
[9] = tested on: C. elegans NSMs; assay: serotonin uptake in vivo, anti-serotonin staining of NSMs; conditions: tph-1, 2 mM 5-HT for 2 hours, no fluoxetine
Procedure: For the anti-serotonin antisera experiments shown in FIG. 1B, mod-5(n823); cat-4 and cat-4; lin-15(n765ts) double mutants were grown at 20° C., and animals of both genotypes were incubated separately on plates containing 2 mM serotonin and bacteria (see Sawin et al. (Neuron 26:619–623, 2000) for details concerning how plates were prepared) for two hours and then incubated on plates with bacteria but without serotonin for 30 min. Controls without exogenous serotonin were similarly treated in parallel. Prior to fixation, mod-5(n823); cat-4 and cat-4; lin-15 double mutants preincubated on serotonin-containing plates were combined, and mod-5(n823); cat-4 and cat-4; lin-15 double mutants preincubated on control plates were combined. Serotonin staining was performed as described by Desai et al. (Nature 336:638–646, 1988) using affinity-purified rabbit polyclonal anti-serotonin antisera. The cat-4; lin-15 mutants were not defective in the uptake of serotonin and served as internal controls for each staining reaction. These animals could be distinguished from the test animals by the Multivulva phenotype caused by lin-15.

[10] = tested on: other SERTs; conditions: read-out: Km range of serotonin transport reported for other SERTs; cited from earlier work
[11] = substrate: NCCc1c[nH]c2ccc(O)cc12; assay: cells, lysate or membranes; conditions: other: HEK293 GFPMOD-5 cells, Eadie-Hoftsee transformation; pH 7.4; 37.0 °C

## NC[C@H](O)c1ccc(O)c(O)c1 [NE, norepinephrine]
[1]
  MOD-5-mediated uptake of radiolabeled neurotransmitter: inefficient at translocating

## COC(=O)[C@H]1[C@@H](OC(=O)c2ccccc2)C[C@@H]2CC[C@H]1N2C [cocaine]
[2]
  Ki: 4080 ± 349 nM

## NCCc1ccc(O)cc1 [tyramine]
[3]
  dSERT-mediated transport of [^3H]serotonin, % of control: 95%±15%
[1]
  transport of [^3H]serotonin by MOD-5, % of control: 54%±10%

## NCC(O)c1ccc(O)cc1 (stereo not drawn) [octopamine]
[3]
  dSERT-mediated transport of [^3H]serotonin, % of control: 82%±15%
[1]
  transport of [^3H]serotonin by MOD-5, % of control: 86%±12%

## CN(C)CCCN1c2ccccc2CCc2ccccc21 [imipramine]
[2]
  Ki: 89 ± 58 nM

## NCCc1ccc(O)c(O)c1 [dopamine]
[1]
  MOD-5-mediated uptake of radiolabeled neurotransmitter: inefficient at translocating

## NCCc1c[nH]cn1 [histamine]
[1]
  MOD-5-mediated uptake of radiolabeled neurotransmitter: inefficient at translocating

## N[C@@H](CCC(=O)O)C(=O)O [glutamate]
[1]
  MOD-5-mediated uptake of radiolabeled neurotransmitter: inefficient at translocating

## CNCCC(Oc1ccc(C(F)(F)F)cc1)c1ccccc1 (stereo not drawn) [fluoxetine]
[4]; tph-1, 2.9 mM
  proportion of animals with contracted noses: 100%
[4]; wild-type and mod-5(n3314), 1.5 mM
  proportion of animals with contracted noses: approximately 25%
[4]; wild-type and mod-5(n3314), 2.9 mM
  proportion of animals with contracted noses: 100%
[5]; mod-5(n3314) mutants vs wild-type, scored after ten minutes
  paralysis induced by fluoxetine treatment: retained wild-type sensitivity to fluoxetine
[5]; tph-1 mutants vs wild-type
  paralysis induced by fluoxetine treatment: paralyzed tph-1 mutants to a similar extent as wild-type animals
[6]; cat-4 mutants
  stimulation of egg-laying: completely resistant
[6]; egl-1(n1084) mutants (lack HSNs)
  stimulation of egg-laying: no effect on egg-laying
[6]; mod-5(n3314) mutants, 1.5 mM fluoxetine
  stimulation of egg-laying: stimulated to lay eggs to nearly the same extent as was the wild-type
[6]; tph-1 mutants
  stimulation of egg-laying: partially resistant
[7]; bas-1, cat-4 mutants preincubated with 2 mM serotonin
  potentiation of the enhanced slowing response: exhibited a potentiated enhanced slowing response
[7]; mod-1(ok103) mutants
  potentiation of the enhanced slowing response: potentiated by fluoxetine
[7]; mod-5(n3314), mod-1(ok103) double mutants
  potentiation of the enhanced slowing response: completely resistant
[7]; wild-type, food-deprived in 0.22 mM fluoxetine
  potentiation of the enhanced slowing response: slow their locomotory rate more
[8]
  concentrations leading to paralysis, contraction of nose muscles, stimulation of egg-laying: 0.25–1 mg/ml and 0.7–2.9 mM

## NCCc1c[nH]c2ccc(O)cc12 [serotonin]
[9]; mod-5(n3314)
  % Serotonin-positive NSMs: 0%
[9]
  % Serotonin-positive NSMs: 98%
[10]
  Km: 0.28 to 0.63 µM
[1]; HEK293 GFPMOD-5 cells
  Vmax of MOD-5-mediated [^3H]serotonin transport: 8.31×10^−9 nmoles per cell per min

## NCCCC(=O)O [GABA, gamma-aminobutyric acid]
[1]
  MOD-5-mediated uptake of radiolabeled neurotransmitter: inefficient at translocating

B1: MOD-5 CeSERT (Caenorhabditis elegans) (protein)
chain: T1 sequence (Q963F3 1-671)
[11]
  Km: 0.15 ± 0.008 µM
